The values that follow come from US9598440B2, “Inhibitors of IRAK4 activity” (MERCK SHARP & DOHME CORP., priority 2012, dated 2017).

Broadly, the IC50 is the point on the concentration scale where inhibition reaches its midpoint. Low values mean greater potency, high ones weaker potency.

For this experiment, the target named is IRAK4 (Homo sapiens (Human), UniProt Q9NWZ3). Kind of experiment: Determination of IRAK4 kinase activity (IMAP fluorescence polarization, phosphorylation of fluorescent peptide substrate). The format is biochemical. To be noted: 0.5 nM GST tagged IRAK4, 100 nM peptide substrate RP7030, 100 μM ATP, 30 minutes at 25° C. The protocol: The kinase activity of IRAK4 is determined by its ability to catalyze the phosphorylation of a fluorescent polypeptide substrate. The extent of phosphorylation is measured using IMAP technology (Molecular Devices) where the phosphorylated fluorescent substrate binds to the large M(III)-based nanoparticles which reduces the rotational speed of the substrate and thus increases its fluorescent polarization (FP).
Chain of IRAK4 (Q9NWZ3 whole entry): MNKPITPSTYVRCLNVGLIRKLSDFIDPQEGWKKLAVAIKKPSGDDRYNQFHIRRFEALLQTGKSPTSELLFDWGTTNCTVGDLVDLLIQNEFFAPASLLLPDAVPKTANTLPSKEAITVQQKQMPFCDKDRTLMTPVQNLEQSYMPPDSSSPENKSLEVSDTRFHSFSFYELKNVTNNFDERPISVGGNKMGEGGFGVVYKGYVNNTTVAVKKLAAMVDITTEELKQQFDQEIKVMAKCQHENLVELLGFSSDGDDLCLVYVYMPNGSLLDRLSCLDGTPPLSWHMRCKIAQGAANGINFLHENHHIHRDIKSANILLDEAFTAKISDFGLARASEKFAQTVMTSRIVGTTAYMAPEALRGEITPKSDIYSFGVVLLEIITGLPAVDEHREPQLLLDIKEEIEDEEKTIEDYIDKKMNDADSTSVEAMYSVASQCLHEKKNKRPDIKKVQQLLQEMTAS
Procedure: A 20 μl reaction mixture contains 10 mM TriHCl, pH 7.2, 0.5 nM GST tagged IRAK4 (SignalChem), 100 nM fluorescent peptide substrate (RP7030, Molecular Devices), 100 μM ATP, 1 mM DTT, 1 mM MgCl2, and 0.01% Tween 20. The reaction is initiated by the addition of ATP. After incubation for 30 minutes at 25° C., 60 μl of Progressive IMAP Reagent (Molecular Devices) is added to stop the reaction. Change in RP7030's FP is determined by a FP reader (Analyst HT, LJL BioSystems). Analytical LCMS Conditions: • Condition A: Phenomenex Luna C18 (4.6×250 mm), 95:5 to 5:95 water:MeCN (0.05% TFA), over 10 min, hold 6 min. • Condition B: Agilent SBC (3.0×50 mm), solvent A: H20-0.1% TFA; • solvent B: ACN-0.1% TFA; GRADIENT TABLE: 0 min:10% B, 0.3 min: 10% B, 1.5 min: 95% B, 2.70 min: 95% B, 2.76 min: 10% B, stop time 3.60 min.
`Cc1cccc(Nc2ncc(-c3nc4ccccc4s3)c(N[C@@H]3CC(C(C)(C)O)[C@@H](O)[C@H]3O)n2)c1` (stereo in doubt) [Example 118, 5-(benzo[d]thiazol-2-yl)-6-(((1R,2S,3R,4R)-2,3-dihydroxy-4-(2-hydroxypropan-2-yl)cyclopentyl)amino)-2-(m-tolylamino)pyrimidine] showed an IC50 of 16 nM. As for `CC(C)(O)C1C[C@@H](Nc2nc(Nc3ccccc3)ncc2-c2nc3ccccc3s2)[C@H](O)[C@@H]1O` (stereo in doubt) [Example 119, 5-(benzo[d]thiazol-2-yl)-6-(((1R,2S,3R,4R)-2,3-dihydroxy-4-(2-hydroxypropan-2-yl)cyclopentyl)amino)-2-(phenylamino)pyrimidine], the IC50 came to 16 nM. This lies in the double-digit nanomolar range. In turn, `CC(C)(O)C1C[C@@H](Nc2nc(Nc3ccnc(C(F)(F)F)c3)ncc2-c2nc3ccccc3s2)[C@H](O)[C@@H]1O` (stereo in doubt) [Example 120, 5-(benzo[d]thiazol-2-yl)-6-(((1R,2S,3R,4R)-2,3-dihydroxy-4-(2-hydroxypropan-2-yl)cyclopentyl)amino)-2-((2-(trifluoromethyl)pyridin-4-yl)amino)pyrimidine] showed an IC50 of 10 nM. With `CC(C)(O)C1C[C@@H](Nc2nc(Nc3cccc(C(F)(F)F)c3)ncc2-c2nc3ccccc3s2)[C@H](O)[C@@H]1O` (stereo in doubt) [Example 121, 5-(benzo[d]thiazol-2-yl)-6-(((1R,2S,3R,4R)-2,3-dihydroxy-4-(2-hydroxypropan-2-yl)cyclopentyl)amino)-2-((3-(trifluoromethyl)phenyl)amino)pyrimidine] the figure was 386 nM. With `CC(C)(O)C1C[C@@H](Nc2nc(Nc3cc(F)cc(F)c3)ncc2-c2nc3ccccc3s2)[C@H](O)[C@@H]1O` (stereo in doubt) [Example 122, 5-(benzo[d]thiazol-2-yl)-2-((3,5-difluorophenyl)amino)-6-(((1R,2S,3R,4R)-2,3-dihydroxy-4-(2-hydroxypropan-2-yl)cyclopentyl)amino)pyrimidine] the figure was 163 nM; with `COc1cc(Nc2ncc(-c3ccc4cccc(C)c4n3)c(N[C@@H]3CC(C(C)(C)O)[C@@H](O)[C@H]3O)n2)ccn1` (stereo in doubt) [Example 123, 6-(((1R,2S,3R,4R)-2,3-dihydroxy-4-(2-hydroxypropan-2-yl)cyclopentyl)amino)-2-((2-methoxypyridin-4-yl)amino)-5-(8-methylquinolin-2-yl)pyrimidine], 712 nM; with `COc1ccc(Nc2ncc(-c3nc4ccccc4s3)c(N[C@@H]3CC(C(C)(C)O)[C@@H](O)[C@H]3O)n2)c(OC)c1` (stereo in doubt) [Example 125, 5-(benzo[d]thiazol-2-yl)-6-(((1R,2S,3R,4R)-2,3-dihydroxy-4-(2-hydroxypropan-2-yl)cyclopentyl)amino)-2-((2,4-dimethoxyphenyl)amino)pyrimidine], 60 nM. The value for `COc1cc(Nc2ncc(-c3nc4ccccc4s3)c(N[C@@H]3CC(C(C)(C)O)[C@@H](O)[C@H]3O)n2)ccn1` (stereo in doubt) [Example 126, 5-(benzo[d]thiazol-2-yl)-6-(((1R,2S,3R,4R)-2,3-dihydroxy-4-(2-hydroxypropane-2-yl)cyclopentyl)amino)-2-((2-methoxypyridin-4-yl)amino)pyrimidine] was 9 nM. Compound `COc1cc(Nc2ncc(-c3nc4cnccc4s3)c(N[C@@H]3CC(C(C)(C)O)[C@@H](O)[C@H]3O)n2)ccn1` (stereo in doubt) [Example 136, 6-(((1R,2S,3R,4R)-2,3-dihydroxy-4-(2-hydroxypropan-2-yl)cyclopentyl)amino)-2-((2-methoxypyridin-4-yl)amino)-5-(thiazolo[4,5-c]pyridin-2-yl)pyrimidine] returned an IC50 of 0.7 nM.

As for `Cc1cc(Nc2ncc(-c3nc4cnccc4s3)c(N[C@@H]3CC(C(C)(C)O)[C@@H](O)[C@H]3O)n2)cc(C)n1` (stereo in doubt) [Example 137, 6-(((1R,2S,3R,4R)-2,3-dihydroxy-4-(2-hydroxypropan-2-yl)cyclopentyl)amino)-2-((2,6-dimethylpyridin-4-yl)amino)-5-(thiazolo[4,5-c]pyridin-2-yl)pyrimidine], the IC50 is 0.2 nM.

In turn, `Cc1cc(Nc2ncc(-c3nc4c(C)nccc4s3)c(N[C@@H]3CC(C(C)(C)O)[C@@H](O)[C@H]3O)n2)cc(C)n1` (stereo in doubt) [Example 138, 6-(((1R,2S,3R,4R)-2,3-dihydroxy-4-(2-hydroxypropan-2-yl)cyclopentyl)amino)-2-((2,6-dimethylpyridin-4-yl)amino)-5-(4-methylthiazolo[4,5-c]pyridin-2-yl)pyrimidine] had an IC50 of 0.5 nM. This IC50 lies about 2.5-fold higher than the previous one. With `Cc1cc(Nc2cc(N[C@H]3C[C@@H](C(C)(C)O)[C@H](O)[C@@H]3O)c(-c3nc(C)cs3)cn2)cc(C)n1` (stereo in doubt) [Example 162, (1S,2R,3S,5R)-3-((2-((2,6-dimethylpyridin-4-yl)amino)-5-(4-methylthiazol-2-yl)pyridin-4-yl)amino)-5-(2-hydroxypropan-2-yl)cyclopentane-1,2-diol] the figure was 37 nM; with `Cc1cc(Nc2cc(N[C@H]3C[C@@H](C(C)(C)O)[C@H](O)[C@@H]3O)c(-c3ccc4ccccc4n3)cn2)cc(C)n1` (stereo in doubt) [Example 164, (1S,2R,3 S,5R)-3-((2-((2,6-dimethylpyridin-4-yl)amino)-5-(quinolin-2-yl)pyridin-4-yl)amino)-5-(2-hydroxypropan-2-yl)cyclopentane-1,2-diol], 3 nM. The value for `OC[C@H]1C[C@@H](Nc2nc(Nc3ccccc3)ncc2-c2nc3ccccc3s2)[C@H](O)[C@@H]1O` [Example 1, (1R,2S,3R,5R)-3-((5-(benzo[d]thiazol-2-yl)-2-(phenylamino)pyrimidin-4-yl)amino)-5-(hydroxymethyl)cyclopentane-1,2-diol] was 20 nM; that for `OC[C@H]1C[C@@H](Nc2nc(Nc3ccc(O)cc3)ncc2-c2nc3ccccc3s2)[C@H](O)[C@@H]1O` [Example 2, (1R,2S,3R,5R)-3-((5-(benzo[d]thiazol-2-yl)-2-((4-hydroxyphenyl)amino)pyrimidin-4-yl)amino)-5-(hydroxymethyl)cyclopentane-1,2-diol] was 5.8 nM; that for `OC[C@H]1C[C@@H](Nc2nc(Nc3cccc(O)c3)ncc2-c2nc3ccccc3s2)[C@H](O)[C@@H]1O` [Example 3, (1R,2S,3R,5R)-3-((5-(benzo[d]thiazol-2-yl)-2-((3-hydroxyphenyl)amino)pyrimidin-4-yl)amino)-5-(hydroxymethyl)cyclopentane-1,2-diol] was 12 nM. With `COc1cccc(Nc2ncc(-c3nc4ccccc4s3)c(N[C@@H]3C[C@H](CO)[C@@H](O)[C@H]3O)n2)c1` [Example 4, (1R,2S,3R,5R)-3-((5-(benzo[d]thiazol-2-yl)-2-((3-methoxyphenyl)amino)pyrimidin-4-yl)amino)-5-(hydroxymethyl)cyclopentane-1,2-diol] the figure was 137 nM. In turn, `Nc1ncc(-c2nc3ccccc3o2)c(N[C@@H]2C[C@H](CO)[C@@H](O)[C@H]2O)n1` [Example 5, (1R,2S,3R,5R)-3-((2-amino-5-(benzo[d]oxazol-2-yl)pyrimidin-4-yl)amino)-5-(hydroxymethyl)cyclopentane-1,2-diol] gave an IC50 of 2560 nM. `OC[C@H]1C[C@@H](Nc2nc(Nc3ccnc(F)c3)ncc2-c2nc3ccccc3s2)[C@H](O)[C@@H]1O` [Example 6, (1R,2S,3R,5R)-3-((5-(benzo[d]thiazol-2-yl)-2-((2-fluoropyridin-4-yl)amino)pyrimidin-4-yl)amino)-5-(hydroxymethyl)cyclopentane-1,2-diol]: 2560 nM corresponded to half-maximal inhibition (IC50). The value for `COc1cc(Nc2ncc(-c3nc4ccccc4s3)c(N[C@@H]3C[C@H](CO)[C@@H](O)[C@H]3O)n2)ccn1` [Example 7, (1R,2S,3R,5R)-3-((5-(benzo[d]thiazol-2-yl)-2-((2-methoxypyridin-4-yl)amino)pyrimidin-4-yl)amino)-5-(hydroxymethyl)cyclopentane-1,2-diol] was 4.6 nM; that for `Cc1cnccc1Nc1ncc(-c2nc3ccccc3s2)c(N[C@@H]2C[C@H](CO)[C@@H](O)[C@H]2O)n1` [Example 8, (1R,2S,3R,5R)-3-((5-(benzo[d]thiazol-2-yl)-2-((3-methylpyridin-4-yl)amino)pyrimidin-4-yl)amino)-5-(hydroxymethyl)cyclopentane-1,2-diol] was 516 nM; that for `Cc1cc(Nc2ncc(-c3nc4ccccc4s3)c(N[C@@H]3C[C@H](CO)[C@@H](O)[C@H]3O)n2)cc(C)n1` [Example 9, (1R,2S,3R,5R)-3-((5-(benzo[d]thiazol-2-yl)-2-((2,6-dimethylpyridin-4-yl)amino)pyrimidin-4-yl)amino)-5-(hydroxymethyl)cyclopentane-1,2-diol] was 0.32 nM. With `COc1ccc(Nc2ncc(-c3nc4ccccc4s3)c(N[C@@H]3C[C@H](CO)[C@@H](O)[C@H]3O)n2)cc1` [Example 10, (1R,2S,3R,5R)-3-((5-(benzo[d]thiazol-2-yl)-2-((4-methoxyphenyl)amino)pyrimidin-4-yl)amino)-5-(hydroxymethyl)cyclopentane-1,2-diol] the figure was 14 nM.
